Experimental data taken from ChEMBL document CHEMBL1133382, “Probing the extended binding determinants of oligosaccharyl transferase with synthetic inhibitors of asparagine-linked glycosylation” (Bioorg Med Chem Lett, 2000).
Starred links: 1 amine or outer side, 2 acyl side, 3 side chain; linkers in the order of their positions; H or OH if unused. Positions of bridges follow the written chain, without caps; N, C: chain ends. Non-standard residues stand in square brackets, D forms with d. Residues, ends and D or L forms follow the SMILES beside them. *: point of attachment. Phe(4-NO2) = N[C@@H](Cc1ccc([N+](=O)[O-])cc1)C(=O)O; X1 = O=C(CCCCC[*:2])[*:1]; Dab = NCC[C@H](N)C(=O)O; X3 = c1ccc2cc(*)ccc2c1

target: T1, Dolichyl-diphosphooligosaccharide--protein glycosyltransferase 48 kDa subunit (UniProt P39656); assay: Inhibition of asparagine-linked glycosylation by oligosaccharyl transferase; parameters: species or system Saccharomyces cerevisiae
T1 sequence (P39656 whole entry): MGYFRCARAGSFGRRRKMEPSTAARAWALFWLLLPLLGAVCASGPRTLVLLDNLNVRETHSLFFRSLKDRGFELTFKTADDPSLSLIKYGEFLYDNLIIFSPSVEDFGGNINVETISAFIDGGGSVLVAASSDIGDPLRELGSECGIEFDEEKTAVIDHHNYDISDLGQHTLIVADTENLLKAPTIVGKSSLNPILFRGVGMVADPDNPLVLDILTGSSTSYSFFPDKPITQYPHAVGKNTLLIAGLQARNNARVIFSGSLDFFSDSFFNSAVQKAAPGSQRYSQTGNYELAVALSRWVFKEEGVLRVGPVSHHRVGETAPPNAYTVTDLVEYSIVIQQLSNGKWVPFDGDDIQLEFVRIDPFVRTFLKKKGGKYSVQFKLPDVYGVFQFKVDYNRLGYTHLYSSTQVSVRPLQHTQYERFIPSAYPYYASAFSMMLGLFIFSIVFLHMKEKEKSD

Compound	Ki [nM]
CC(C)[C@H](NC(=O)[C@@H](NC(=O)[C@@H]1CSCCCCCC(=O)N[C@@H](CCN)C(=O)N1)[C@@H](C)O)C(=O)N[C@H](C(N)=O)[C@@H](C)O	82
CC(C)[C@H](NC(=O)[C@@H](NC(=O)CNC(=O)[C@H](CCCNCc1ccccc1)NCc1ccccc1)[C@@H](C)O)C(=O)N[C@H](C(N)=O)[C@H](C)O	> 5000
CCCCCCCCCCNCC[C@@H]1NC(=O)CCCCCSC[C@@H](C(=O)N[C@H](C(=O)N[C@H](C(=O)N[C@H](C(=O)N[C@@H](Cc2ccc([N+](=O)[O-])cc2)C(N)=O)[C@@H](C)O)C(C)C)[C@@H](C)O)NC1=O	61
[H][C@@](NC(=O)[C@@H]1CSCCCCCC(=O)N[C@@H](CCN)C(=O)N1)(C(=O)N[C@H](C(=O)N[C@H](C(=O)N[C@@H](Cc1ccc([N+](=O)[O-])cc1)C(N)=O)[C@@H](C)O)C(C)C)[C@@H](C)O (HELM PEPTIDE1{[Dab].C.T.V.T.[O=C([C@H](Cc1ccc([N+](=O)[O-])cc1)N[*:1])[*:2]].[am]}|CHEM1{[O=C(CCCCC[*:2])[*:1]]}$PEPTIDE1,CHEM1,1:R1-1:R1|PEPTIDE1,CHEM1,2:R3-1:R2$$$V2.0)	37
COc1ccc(CNCCC[C@H](NCc2ccccc2)C(=O)NCC(=O)N[C@H](C(=O)N[C@H](C(=O)N[C@H](C(N)=O)[C@@H](C)O)C(C)C)[C@@H](C)O)cc1 (HELM PEPTIDE1{[COc1ccc(CNCCC[C@H](NCc2ccccc2)C(=O)[*:2])cc1].G.T.V.T.[am]}$$$$V2.0)	305
CC(C)[C@H](NC(=O)[C@@H](NC(=O)CNC(=O)[C@H](CCCNCc1ccc([N+](=O)[O-])cc1)NCc1ccccc1)[C@@H](C)O)C(=O)N[C@H](C(N)=O)[C@@H](C)O (HELM PEPTIDE1{[O=C([C@H](CCCNCc1ccc([N+](=O)[O-])cc1)NCc1ccccc1)[*:2]].G.T.V.T.[am]}$$$$V2.0)	154

The remaining compounds from weak to strong by Ki, led by results:

Ki [nM]	Compound
50	CC(C)[C@H](NC(=O)[C@@H](NC(=O)[C@@H]1CSCCCCCC(=O)N[C@@H](CCN)C(=O)N1)[C@@H](C)O)C(=O)N[C@H](C(=O)NCCCCc1ccccc1)[C@@H](C)O
44	CC(C)[C@H](NC(=O)[C@@H](NC(=O)[C@@H]1CSCCCCCC(=O)N[C@@H](CCN)C(=O)N1)[C@@H](C)O)C(=O)N[C@H](C(=O)NCCc1ccccc1)[C@@H](C)O
40	CC(C)[C@H](NC(=O)[C@@H](NC(=O)[C@@H]1CSCCCCCC(=O)N[C@@H](CCNc2ccc3ccccc3c2)C(=O)N1)[C@@H](C)O)C(=O)N[C@H](C(=O)N[C@@H](Cc1ccc([N+](=O)[O-])cc1)C(N)=O)[C@@H](C)O ([Dab](X3)CTVT[Phe(4-NO2)]-NH2; linker N-2 via X1)
20	CC(C)[C@H](NC(=O)[C@@H](NC(=O)[C@@H]1CSCCCCCC(=O)N[C@@H](CCN)C(=O)N1)[C@@H](C)O)C(=O)N[C@H](C(=O)NCCc1ccc([N+](=O)[O-])cc1)[C@@H](C)O
10	CC(C)[C@H](NC(=O)[C@@H](NC(=O)[C@@H]1CSCCCCCC(=O)N[C@@H](CCNc2ccc3ccccc3c2)C(=O)N1)[C@@H](C)O)C(=O)N[C@H](C(=O)NCCc1ccc([N+](=O)[O-])cc1)[C@@H](C)O
